Results published in paper PMC12663137 (Nature Communications, 2025).
Where “and” joins values, the source holds several entries; their conditions need not be identical. Equal entries are not always repeated.

Key:
SV2A [1] = target: T1, SV2A (Homo sapiens, UniProt Q7L0J3); experiment: Steady-state (saturation) binding of 3H-UCB-J with 30 µM UCB1244283 or 1% DMSO (Fig. 4A)
T1 construct: expressed in transfected cells; host or cells: HEK293 (ATCC CRL-1573), crude membranes
Description: (§1) Ligand binding studies were carried out using crude membranes prepared from HEK293 cells (ATCC, CRL-1573) overexpressing mVenus-SV2AWT or SV2AEM. Membranes were prepared either from transiently transfected cells or from baculovirus-infected cells as described previously. Cells were washed with DPBS (Ca^2+ and Mg^2+ free), followed by resuspending in cold SH buffer (10 mM HEPES-Tris pH 7.4, 320 mM sucrose) containing protease inhibitor cocktail (MedChemExpress) to a density of 10^7 cells/ml. This cell suspension was homogenized by passing through a bead homogenizer (Isobiotec) with 10-micron clearance bead on ice. The lysate was then centrifuged at 4000 × g for 5 min at 4 °C, and the supernatant was aliquoted, frozen in liquid nitrogen, and stored at −80 °C. The mVenus fluorescence estimated using fluorescence size-exclusion chromatography (FSEC) was used to normalize expression levels of mVenus-SV2A mutants studied as detailed previously. For all binding studies, membranes containing […] protein (estimated by BCA method) per reaction were used.
(§2) An equal volume of dimethyl sulfoxide (DMSO) was added to control reactions. Reactions were arrested after 2 h by trapping the membranes on a Unifilter-GF/C 96-well filter plate pre-soaked with 0.1%(w/v) polyethyleneimine. Membranes were washed four times with 0.2 ml of cold binding buffer, dried, and 40 µl of scintillation liquid was added to each well. Radioactivity was monitored in MicroBeta2 plate counter. Residual binding observed in presence of either 10 µM ^1H-UCB-J or 10 µM ^1H-padsevonil was considered as background and subtracted from total binding. Estimates for Kd and Bmax were obtained by fitting the data to one site-specific binding curve using GraphPad Prism 10.

SV2A WT and mutants [2] = target: T2, SV2A WT and mutants (Homo sapiens, UniProt Q7L0J3, L655A); experiment: Modulatory effect of 30 µM UCB1244283 on 3H-UCB-J binding, effect of mutations (Fig. 4D); settings: L655A
T2 construct: expressed in transfected cells; host or cells: HEK293 (ATCC CRL-1573), crude membranes
Description: (§3) Data are shown as mean ± s.d.; n = 6 biological replicates. […] Data are shown as mean ± s.d.; n = 6 biological replicates. […] Residual binding observed at 70 min was defined as 0%. For WT, data are shown as mean ± s.d. […] For the DMSO group, data are shown as mean ± s.d. (n = 4 biological replicates); for the other groups, data are shown as mean (n = 2). Source data for (A, D, E, F) are provided as a Source data file.
as §1, §2

SV2A WT and mutants [3] = target: T3, SV2A WT and mutants (Homo sapiens, UniProt Q7L0J3, L655Q); experiment: as above; settings: L655Q
T3 construct: expressed in transfected cells; host or cells: HEK293 (ATCC CRL-1573), crude membranes
Description: as §3, §1, §2

[4] = target: T4, SV2AEM WT or SV2AEM F188A (Homo sapiens, UniProt Q7L0J3); experiment: Dissociation kinetics of 3H-UCB-J (Fig. 4E); format: binding; settings: WT
T4 construct: expressed in transfected cells; host or cells: HEK293 (ATCC CRL-1573), crude membranes
Description: as §1
(§4) After 2 h of incubation, ligand dissociation was initiated with 0.3 µM ^1H-UCB-J and radioactivity was monitored at indicated time points by trapping equal volume of membranes on PEI-treated Unifilter-GF/C 96-well filter plates. Dissociation half-life (t1/2) estimates were obtained by fitting the data to one-phase exponential decay using GraphPad Prism 10.

[5] = target: T5, SV2AEM WT or SV2AEM F188A (Homo sapiens, UniProt Q7L0J3, F188A); experiment: Dissociation kinetics of 3H-UCB-J (Fig. 4E); format: binding; settings: F188A
T5 construct: expressed in transfected cells; host or cells: HEK293 (ATCC CRL-1573), crude membranes
Description: as §1, §4

SV2A [6] = target: T1, SV2A; experiment: Reduction of 3H-padsevonil (50 nM) binding by UCB1244283 (Fig. 5F); settings: for 3H-Padsevonil binding (%): no UCB1244283 = 100%
Description: Binding observed with SV2AWT was defined as 100%. Data are shown as mean ± s.d.; n = 6 biological replicates. […] Data are shown as mean ± s.d.; n = 6 biological replicates. Significance values were obtained from ordinary one-way ANOVA test (n.s. not significant; **p-value = 0.0064; ****p-value < 0.0001). Source data for (C, F) are provided as a Source data file.
as §1

[7] = Solubility remark (cryo-EM sample preparation); format: physicochemical; settings: concentration could not be increased further
Description: convulsions (Daniels V, Wood M, Leclercq K, Kaminski RM, Gillard M. Modulation of the conformational state of the SV2A protein by an allosteric mechanism as evidenced by ligand binding assays. Br J Pharmacol. 2013 […]
understanding of how USC1244283 modulates the binding of antiseizure drugs to SV2A, the cryo-EM structure of an SV2A-UCB1244283 complex should be determined. […]
allosteric site or also the primary binding site? Are there conformational changes without BRV or UCB-J […]
In our original submission, we mentioned our unsuccessful attempt to determine the structure of the SV2A– […]
These observations are consistent with the allosteric site not being well formed (i.e., very low aƯinity) in unliganded SV2A; orthosteric ligand binding induces the formation of the allosteric site (increased aƯinity).
We have expanded the text to make these points clearer. […]
endogenous substrate is bound to the transporter, or from other oƯ-target eƯects.
- Like reported for BRV in the above-mentioned preprint, UCB1244283 prevents dissociation of UCB-J by blocking the luminal gate. […] I think such […]
experiments are important to obtain further insights into the action of UCB1244283. […]
the orthosteric site and the vesicular lumen. […]
accessing the orthosteric site, and we have included additional discussion in the revision.
(1 picture or pasted object on this page, not shown here)

[8] = tested on: tonic and clonic convulsions; design: method as in Daniels et al., Br J Pharmacol. 2013; settings: UCB1244283 alone; ref Daniels et al., Br J Pharmacol. 2013; cited from earlier work

T1 sequence (Q7L0J3 whole entry): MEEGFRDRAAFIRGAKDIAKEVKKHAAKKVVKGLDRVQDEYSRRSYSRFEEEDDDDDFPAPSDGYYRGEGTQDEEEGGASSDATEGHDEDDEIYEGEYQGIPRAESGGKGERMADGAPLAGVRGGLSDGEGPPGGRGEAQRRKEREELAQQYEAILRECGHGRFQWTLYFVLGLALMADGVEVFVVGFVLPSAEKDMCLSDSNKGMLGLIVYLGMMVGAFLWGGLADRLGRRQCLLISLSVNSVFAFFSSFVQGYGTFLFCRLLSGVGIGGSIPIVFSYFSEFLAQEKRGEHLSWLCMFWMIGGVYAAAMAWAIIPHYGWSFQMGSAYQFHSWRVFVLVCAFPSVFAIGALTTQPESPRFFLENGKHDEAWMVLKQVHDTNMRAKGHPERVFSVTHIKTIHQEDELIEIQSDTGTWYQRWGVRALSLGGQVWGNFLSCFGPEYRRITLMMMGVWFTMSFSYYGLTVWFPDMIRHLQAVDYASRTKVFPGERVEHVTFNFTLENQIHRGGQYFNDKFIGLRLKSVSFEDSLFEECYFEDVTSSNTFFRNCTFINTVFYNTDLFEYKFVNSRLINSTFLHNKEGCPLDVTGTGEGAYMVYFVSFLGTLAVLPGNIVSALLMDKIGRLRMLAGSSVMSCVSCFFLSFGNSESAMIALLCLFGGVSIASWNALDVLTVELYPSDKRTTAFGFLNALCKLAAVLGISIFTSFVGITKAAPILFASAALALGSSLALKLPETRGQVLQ
T5 sequence (Q7L0J3 141-742 F188A): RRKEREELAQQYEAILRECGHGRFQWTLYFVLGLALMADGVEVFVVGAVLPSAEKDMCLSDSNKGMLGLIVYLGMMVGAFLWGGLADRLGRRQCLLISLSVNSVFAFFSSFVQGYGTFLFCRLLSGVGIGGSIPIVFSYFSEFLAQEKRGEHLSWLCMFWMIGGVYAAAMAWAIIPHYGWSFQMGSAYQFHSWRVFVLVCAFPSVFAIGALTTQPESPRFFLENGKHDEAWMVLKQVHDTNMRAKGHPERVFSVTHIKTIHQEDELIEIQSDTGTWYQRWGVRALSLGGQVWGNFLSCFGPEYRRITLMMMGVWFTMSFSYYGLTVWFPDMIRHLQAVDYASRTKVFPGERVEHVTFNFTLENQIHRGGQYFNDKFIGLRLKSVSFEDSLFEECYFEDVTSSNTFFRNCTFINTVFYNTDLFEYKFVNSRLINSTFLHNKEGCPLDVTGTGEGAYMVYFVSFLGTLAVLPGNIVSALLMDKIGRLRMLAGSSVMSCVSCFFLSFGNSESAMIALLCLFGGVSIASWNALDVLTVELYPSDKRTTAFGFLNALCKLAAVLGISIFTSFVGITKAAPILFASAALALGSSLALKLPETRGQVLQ
T4 sequence (Q7L0J3 141-742 F188A): as above
T2 sequence (Q7L0J3 whole entry L655A): as the sequence (Q7L0J3 whole entry) above, with L655A counted along it
T3 sequence (Q7L0J3 whole entry L655Q): as the sequence (Q7L0J3 whole entry) above, with L655Q counted along it

COc1ccccc1NC(=O)CC(C)Cc1cc(C)cc(C)c1 (stereo not shown) [UCB1244283]
3H-UCB-J Binding (f.mol/assay) (SV2A [1]; 3H-UCB-J 0.78 nM): 6 f.mol/assay and 7 f.mol/assay
3H-UCB-J Binding (f.mol/assay) (SV2A [1]; 3H-UCB-J 1.56 nM): 11 f.mol/assay and 8 f.mol/assay and 10 f.mol/assay and 13 f.mol/assay and 14 f.mol/assay
3H-UCB-J Binding (f.mol/assay) (SV2A [1]; 3H-UCB-J 6.25 nM): 35 f.mol/assay and 45 f.mol/assay and 39 f.mol/assay and 44 f.mol/assay and 54 f.mol/assay
3H-UCB-J Binding (f.mol/assay) (SV2A [1]; 3H-UCB-J 12.50 nM): 66 f.mol/assay and 56 f.mol/assay and 69 f.mol/assay and 73 f.mol/assay and 70 f.mol/assay and 60 f.mol/assay
3H-UCB-J Binding (f.mol/assay) (SV2A [1]; 3H-UCB-J 25.00 nM): 90 f.mol/assay and 106 f.mol/assay and 118 f.mol/assay and 84 f.mol/assay and 111 f.mol/assay
3H-UCB-J Binding (f.mol/assay) (SV2A [1]; 3H-UCB-J 50.00 nM): 82 f.mol/assay and 91 f.mol/assay and 128 f.mol/assay and 130 f.mol/assay and 116 f.mol/assay and 122 f.mol/assay
3H-UCB-J Binding (f.mol/assay) (SV2A [1]; 3H-UCB-J 100.00 nM): 104 f.mol/assay and 70 f.mol/assay and 121 f.mol/assay and 105 f.mol/assay and 88 f.mol/assay and 115 f.mol/assay
allosteric modulation of 3H-UCB-J binding (SV2A WT and mutants [2]): did not impair modulation
allosteric modulation of 3H-UCB-J binding (SV2A WT and mutants [3]): abolished allosteric modulation
3H-UCB-J Binding (%) ([4]; 30 µM UCB1244283, 0 min): 159.90% and 202.86% and 206.18%
3H-UCB-J Binding (%) ([4]; 30 µM UCB1244283, 4 min): 62.83% and 91.12% and 108.82%
3H-UCB-J Binding (%) ([4]; 30 µM UCB1244283, 5 min): 85.26% and 105.06% and 94.83%
3H-UCB-J Binding (%) ([4]; 30 µM UCB1244283, 6 min): 84.91% and 66.93% and 87.39%
3H-UCB-J Binding (%) ([4]; 30 µM UCB1244283, 7 min): 43.33% and 65.94% and 53.85%
3H-UCB-J Binding (%) ([4]; 30 µM UCB1244283, 8 min): 39.38% and 72.33% and 39.29%
3H-UCB-J Binding (%) ([4]; 30 µM UCB1244283, 9 min): 42.32% and 69.81% and 52.93%
3H-UCB-J Binding (%) ([4]; 30 µM UCB1244283, 10 min): 57.05% and 78.11% and 55.34%
3H-UCB-J Binding (%) ([4]; 30 µM UCB1244283, 20 min): 16.75% and 27.97% and 21.29%
3H-UCB-J Binding (%) ([4]; 30 µM UCB1244283, 25 min): 30.01% and 19.16% and 35.10%
3H-UCB-J Binding (%) ([4]; 30 µM UCB1244283, 50 min): 2.00% and 8.63% and 4.06%
3H-UCB-J Binding (%) ([4]; 30 µM UCB1244283, 60 min): 0.00%
3H-UCB-J Binding (%) ([4]; 30 µM UCB1244283, 70 min): 13.54% and 8.21%
3H-UCB-J Binding (%) ([5]; 30 µM UCB1244283, 0 min): 110.44% and 123.64%
3H-UCB-J Binding (%) ([5]; 30 µM UCB1244283, 4 min): 30.89% and 37.36%
3H-UCB-J Binding (%) ([5]; 30 µM UCB1244283, 7 min): 29.68% and 19.59%
3H-UCB-J Binding (%) ([5]; 30 µM UCB1244283, 8 min): 17.69% and 24.42%
3H-UCB-J Binding (%) ([5]; 30 µM UCB1244283, 9 min): 11.91% and 16.05%
3H-UCB-J Binding (%) ([5]; 30 µM UCB1244283, 10 min): 2.24% and 11.65%
3H-UCB-J Binding (%) ([5]; 30 µM UCB1244283, 15 min): -0.26% and 9.40%
3H-UCB-J Binding (%) ([5]; 30 µM UCB1244283, 25 min): -3.97% and 3.97%
3H-UCB-J Binding (%) ([5]; 30 µM UCB1244283, 30 min): -0.60% and 3.19%
3H-UCB-J Binding (%) ([5]; 30 µM UCB1244283, 40 min): 2.93% and 0.35%
3H-UCB-J Binding (%) ([5]; 30 µM UCB1244283, 50 min): 6.38% and 7.42%
3H-UCB-J Binding (%) ([5]; 30 µM UCB1244283, 60 min): 10.53% and 0.69%
3H-UCB-J Binding (%) ([5]; 30 µM UCB1244283, 70 min): 5.09% and -0.95%
displacement of padsevonil from SV2A (SV2A [6]): can displace padsevonil from SV2A in a dose-dependent manner
3H-Padsevonil binding (%) (SV2A [6]; UCB1244283 10 μM): 91.0284% and 102.553% and 101.386% and 86.5062% and 91.3202%
3H-Padsevonil binding (%) (SV2A [6]; UCB1244283 30 μM): 87.2356% and 88.6944% and 95.6966% and 92.1955% and 71.6265% and 83.5886%
3H-Padsevonil binding (%) (SV2A [6]; UCB1244283 50 μM): 81.1087% and 81.984% and 86.5062% and 85.6309% and 65.7914% and 73.0853%
3H-Padsevonil binding (%) (SV2A [6]; UCB1244283 100 μM): 69.7301% and 72.0642% and 78.9205% and 76.5864% and 67.5419%
3H-Padsevonil binding (%) (SV2A [6]; UCB1244283 500 μM): 70.4595% and 69.4384% and 72.6477% and 70.0219% and 59.2268% and 71.4807%
solubility [7]: poor solubility
effect against convulsions [8]: clear protective effect against tonic and clonic convulsions
